According to US6897217B2, “2-Alkynyl-and 2-alkenyl-pyrazolo-[4,3-e]-1,2,4-triazolo-[1,5-c]-pyrimidine adenosine A2a receptor antagonists” (Schering Corporation, priority 2003, dated 2005):

Target: T1, Human A2a Adenosine Receptor (Homo sapiens, UniProt P29274)
T1 construct: purchased Receptor Biology, Inc., Beltsville, Md; RB-HA2a
Assay: Human adenosine A2a receptor competition binding assay
Conditions: [3H]-SCH 58261 displacement, human A2a membranes
Method: Human Adenosine A2a and A1 Receptor Competition Binding Assay Protocol
• A2a: Human A2a Adenosine Receptor membranes, Catalog #RB-HA2a, Receptor Biology, Inc., Beltsville, Md. Dilute to 17 μg/100 μl in membrane dilution buffer (see below). Assay Buffers • Membrane dilution buffer: Dulbecco's Phosphate Buffered Saline (Gibco/BRL)+10 mM MgCl2. • Compound Dilution Buffer: Dulbecco's Phosphate Buffered Saline (Gibco/BRL)+10 mM MgCl2 supplemented with 1.6 mg/ml methyl cellulose and 16% DMSO. Prepared fresh daily. Ligands • A2a: [3H]-SCH 58261, custom synthesis, AmershamPharmacia Biotech, Piscataway, N.J. Stock is prepared at 1 nM in membrane dilution buffer. Final assay concentration is 0.5 nM. • A1: [3H]-DPCPX, AmershamPharmacia Biotech, Piscataway, N.J. Stock is prepared at 2 nM in membrane dilution buffer. Final assay concentration is 1 nM. Non-specific Binding • A2a: To determine non-specific binding, add 100 nM CGS 15923 (RBI, Natick, Mass.). Working stock is prepared at 400 nM in compound dilution buffer. • A1: To determine non-specific binding, add 100 μM NECA (RBI, Natick, Mass.). Working stock is prepared at 400 μM in compound dilution buffer. Compound Dilution • Prepare 1 mM stock solutions of compounds in 100% DMSO. Dilute in compound dilution buffer. Test at 10 concentrations ranging from […] to 30 μM. Prepare working solutions at 4× final concentration in compound dilution buffer. […]

T1 sequence (P29274 whole entry): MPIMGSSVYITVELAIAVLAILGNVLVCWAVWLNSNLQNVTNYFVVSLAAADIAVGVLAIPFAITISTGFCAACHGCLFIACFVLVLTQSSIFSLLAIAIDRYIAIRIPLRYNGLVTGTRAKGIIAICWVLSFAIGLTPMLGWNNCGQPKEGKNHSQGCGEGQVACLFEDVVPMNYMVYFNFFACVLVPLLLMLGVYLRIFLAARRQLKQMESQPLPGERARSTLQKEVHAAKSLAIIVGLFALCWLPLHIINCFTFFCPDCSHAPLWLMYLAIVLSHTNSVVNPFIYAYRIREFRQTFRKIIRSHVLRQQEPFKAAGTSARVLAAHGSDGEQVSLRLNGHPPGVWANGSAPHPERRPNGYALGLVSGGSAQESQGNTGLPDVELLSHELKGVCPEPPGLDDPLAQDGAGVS

Ki [nM]	Compound
2.3	CC#Cc1nc2c3cnn(CCN4CCN(c5ccc(OCCOC)cc5F)CC4)c3nc(N)n2n1 [Example 5-4]
2.2	CC#Cc1nc2c3cnn(CCN4CCN(c5ccc(F)cc5F)CC4)c3nc(N)n2n1 [Example 1-17]
